A short description of data set [1]: In vitro metabolic stability in human liver microsome. It is filed as in vitro ADME. As to conditions: human liver microsomes. As for the experimental part:
(§1) 1900 mg MgCl2 was dissolved into a final volume of 400 mL ultra-pure water.
(§2) 17.42 g K2HPO4 and 13.65 g KH2PO4 were dissolved into a final volume of 1000 mL ultra-pure water, respectively. K2HPO4 and KH2PO4 were mixed to prepare 100 mM potassium phosphate (PBS) buffer. The pH value of the final solution was adjusted to pH 7.30±0.10.
(§3) Cold ACN (including 10 ng/mL Labetalol and 10 ng/mL Glibenclamid) was stored at 4° C.
(§4) Working Solution Preparation:
(§5) Verapamil (positive control) and test compound stock solution were diluted into a concentration of 50 μM and 200 μM respectively, using MeOH/ACN/H2O solution (1:1:2, v/v/v).
(§6) 1) 40 μL MgCl2 and 306 μL PBS were added to 96 plate wells (blank, compound wells, compounds without NADPH wells)
(§7) 2) 4 μL compound working solution was added to above wells (blank: 4 μL PBS buffer) (Note: the volume of DMSO in final incubation system ≤0.5%)
(§8) 3) 10 μL microsomes (20 mg/mL) was added in each well. The mixture was warmed up for 10 minutes at 37.0° C.
(§9) 4) 40 μL 10 mM NADPH working solution was added to start reaction. The total volume was 400 μL.
(§10) 5) Aliquots of 50 μL samples were taken from the reaction solution at 0, 5, 15, 45 min. The reaction solutions were stopped by the addition of 400 μL stop solution.
(§11) 6) The sampling plates were shaked for approx. 5 min.
(§12) 7) Samples were centrifuged at 3200 rcf for 10 min. then transferred 50 μL to a new plate dilute with 200 μL H2O for LC/MS/MS analysis.
(§13) Use equation of first order kinetics to calculate t1/2 and CL: […]
(§14) Where k represents elimination constant, which is calculated from a log linear plot of % Remaining versus time. t1/2 represents the half-life. Cprotein is the concentration of liver microsomes.

A short description of data set [2]: In vitro metabolic stability in rat liver microsome. It is filed as in vitro ADME. The settings on record: rat liver microsomes. As for the experimental part:
as §1, §2, §3, §4, §5, §6, §7, §8, §9, §10, §11, §12, §13, §14
(Liver microsomes are vesicles of endoplasmic reticulum, rich in cytochrome P450 enzymes.)

In data set [3] the target is T1, SHP2 (Homo sapiens, UniProt Q06124).
T1 sequence (Q06124 1-593): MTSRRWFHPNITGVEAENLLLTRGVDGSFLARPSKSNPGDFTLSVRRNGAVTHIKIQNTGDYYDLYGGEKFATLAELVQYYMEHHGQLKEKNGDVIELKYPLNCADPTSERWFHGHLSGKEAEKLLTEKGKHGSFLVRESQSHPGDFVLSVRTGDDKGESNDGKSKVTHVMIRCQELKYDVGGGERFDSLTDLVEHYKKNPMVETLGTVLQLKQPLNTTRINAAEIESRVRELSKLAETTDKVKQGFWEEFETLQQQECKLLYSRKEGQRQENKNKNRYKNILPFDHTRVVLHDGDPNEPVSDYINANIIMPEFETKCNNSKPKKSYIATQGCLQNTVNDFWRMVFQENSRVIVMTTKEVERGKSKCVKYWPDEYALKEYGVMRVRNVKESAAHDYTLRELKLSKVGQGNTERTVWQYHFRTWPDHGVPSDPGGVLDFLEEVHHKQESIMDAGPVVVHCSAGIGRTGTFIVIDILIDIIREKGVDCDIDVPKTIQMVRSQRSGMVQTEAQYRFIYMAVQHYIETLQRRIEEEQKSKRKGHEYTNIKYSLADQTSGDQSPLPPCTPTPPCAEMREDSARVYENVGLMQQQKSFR
Briefly: SHP2 allosteric inhibitor enzyme activity assay (DiFMUP fluorescence). It is filed as biochemical. In short, it runs like this:
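SHP2 activated by 0.5 μM IRS1_pY1172(dPEG8)pY1222 peptide, 0.2 ng enzyme per well, 1 h at room temperature with compound (1 μM top, 3-fold series), then DiFMUP substrate 1 h. Buffer: 60 mM HEPES, 75 mM NaCl, 75 mM KCl, 0.05% BRIJ-35, 1 mM EDTA, 5 mM DTT. Fluorescence ex 340/em 450 nm; IC50 by variable-slope fit.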

In data set [4] the target is T2, hERG channel (Homo sapiens, UniProt Q12809).
T2 construct: expressed in transfected cells; host or cells: HEK-293
T2 sequence (Q12809 whole entry): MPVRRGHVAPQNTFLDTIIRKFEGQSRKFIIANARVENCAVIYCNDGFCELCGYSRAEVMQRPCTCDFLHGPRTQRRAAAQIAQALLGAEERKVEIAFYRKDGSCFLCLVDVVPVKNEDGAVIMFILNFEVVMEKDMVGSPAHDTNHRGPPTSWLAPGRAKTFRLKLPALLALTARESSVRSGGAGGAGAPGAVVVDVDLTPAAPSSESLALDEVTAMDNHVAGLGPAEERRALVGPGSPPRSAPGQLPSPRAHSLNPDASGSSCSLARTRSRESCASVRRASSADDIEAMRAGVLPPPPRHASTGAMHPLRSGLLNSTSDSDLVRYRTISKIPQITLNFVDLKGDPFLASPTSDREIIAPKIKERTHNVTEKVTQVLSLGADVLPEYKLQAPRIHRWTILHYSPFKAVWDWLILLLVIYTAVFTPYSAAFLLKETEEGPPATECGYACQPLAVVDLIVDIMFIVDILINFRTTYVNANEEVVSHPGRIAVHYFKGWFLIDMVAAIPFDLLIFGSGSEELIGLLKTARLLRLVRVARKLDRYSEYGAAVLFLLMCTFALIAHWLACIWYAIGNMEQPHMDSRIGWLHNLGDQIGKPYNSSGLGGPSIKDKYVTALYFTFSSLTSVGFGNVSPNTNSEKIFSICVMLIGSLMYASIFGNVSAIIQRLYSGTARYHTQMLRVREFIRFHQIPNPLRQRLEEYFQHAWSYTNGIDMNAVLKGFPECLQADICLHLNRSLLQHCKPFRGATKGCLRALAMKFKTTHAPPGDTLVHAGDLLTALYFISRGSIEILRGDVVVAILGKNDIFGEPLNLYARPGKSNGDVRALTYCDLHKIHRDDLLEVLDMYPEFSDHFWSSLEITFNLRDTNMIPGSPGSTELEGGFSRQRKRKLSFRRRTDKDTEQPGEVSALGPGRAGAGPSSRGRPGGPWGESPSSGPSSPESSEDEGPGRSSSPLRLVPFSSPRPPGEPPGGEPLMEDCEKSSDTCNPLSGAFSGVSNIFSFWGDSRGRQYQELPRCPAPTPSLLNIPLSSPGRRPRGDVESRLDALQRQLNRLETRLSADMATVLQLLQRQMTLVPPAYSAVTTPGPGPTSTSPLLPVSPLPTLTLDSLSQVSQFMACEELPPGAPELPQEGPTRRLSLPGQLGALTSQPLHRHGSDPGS
Briefly: Patch clamp assay to test the effect of compound on hERG channel. It is filed as cell-based. The settings on record: manual patch clamp, HEK 293 cells expressed with hERG, concentration for half maximum effect. As to the method:
10 mL extracellular solution was used to dilute the stock solution, making the final concentrations of test compound were 0.3 μM, 1 μM, 3 μM, 10 μM and 30 μM.
The solubility of compound was visually observed.
The cell line was derived from HEK-293 cells, and grown in a humidified environment at 37° C. under 5% CO2, using the media formulation below. The cell line should not be allowed to exceed 80% confluence within the culture vessel to prevent contact inhibition causing senescence and should thus be passaged every 3/4 days using a seeding density of 2*10^6 cells per T175 flask. Cell lines were be pre-washed with phosphate buffered saline before harvesting with Trypsin/EDTA and seeded into new flasks.
HEK 293 cells expressed with hERG were plated on cover slips overnight with the cell density less than 50% of confluence. Cells used for electrophysiological study were transferred to a small cell bath (1 mL) mounted on the stage of an inverted microscope (Diaphot, Nikon) and were perfused with external solution containing (in mM) 130 NaCl, 4 KCl, 1.8 CaCl2), 1 MgCl2, 10 glucose and 10 HEPES (pH 7.4 with NaOH), the perfusion rate was 4 mL/min. The internal pipette solution contained (in mM) 130 KCl, 1 MgCl2, 5 ethylene glycol-bis(baminoethyl ether)-N,N,N8,N8-tetraacetic acid, 5 MgATP and 10 HEPES (pH 7.2 with KOH). An HEKA EPC-10 patch-clamp amplifier and PATCHMASTER acquisition program were used to record membrane currents (HEKA Instruments IncD-67466 Lambrecht/Pfalz Germany). All experiments were performed at room temperature (22-23° C.).
The Model P-97 micropipette puller (Sutter Instrument Company, One Digital Drive, Novato, Calif. 94949) was used to pull glass patch pipettes (BF150-86-10) in all experiments.
The experiments were initiated with a 2 min vehicle control period after forming a whole cell configuration with less 5% run-down in 5 min and the tail currents in the report were at least greater than 500 pA. After a 2 min vehicle control period, the perfusion was switched to the reservoir containing the compound at the first concentration. The same procedure was repeated 3-5 times so that each cell was exposed to 4-6 escalating concentrations of compound. The time courses for block and unblock of hERG during compounds exposure and washout were continuously recorded.
The peak tail of hERG was generated by applying 2-sec depolarizing every 12 sec steps from a holding potential of −80 mV, the peak of tail currents were measured at a 5-sec repolarizing pulse at −50 mV.
hERG peak tail currents were directly measured from a 5 sec repolarization pulse at −50 mV. The fraction of control current was plotted as a function of logarithm of compound concentration. To determine the concentration of compound for halfmaximum effect, the concentration-response curve was fitted by Hill equation as shown follow.
where Y is the observed value, Bottom is the lowest observed value (0), Top is the highest observed value (1), and the Hillcoefficient gives the largest absolute value of the slope of the curve.
Data were analyzed by a combination of PATCHMASTER ((HEKA Instruments IncD-67466 Lambrecht/Pfalz Germany) and Origin (OriginLab Corporation, Northampton, Mass.) software programs.
Data were expressed as mean±SEM.

Data set [5] concerns leukemia MV-4-11 cell. Kind of data set: Cell proliferation assay (CellTiter-Glo), MV-4-11. It is filed as cell-based. The settings on record: Homo sapiens, MV4-11; MV-4-11, 120 hrs, CTG; class symbols; read-out: Compound on MV-4-11 cell IC50. As for the experimental part: (§15) The effects of the compounds on the proliferation of leukemia MV-4-11 cell and lung cancer NCI-H358 cell were evaluated by in vitro cell test. The assay used in this study was the CELL TITER-GLO (CTG) luminescence assay, which can detect the number of living cells by quantitative determination of ATP. Because ATP is involved in a variety of enzymatic reactions in vivo and is an indicator of the metabolism of living cells, its content can directly reflects the number and state of cells. During the experiment, Celltiter-Glo™ reagent was added to the cell culture medium to measure the luminescence value. The luminescence value was proportional to the amount of ATP, which in turn was positively correlated with the number of living cells. Therefore, ATP content can be used to detect cell viability.
A bottle of MV-4-11 cells in logarithmic growth phase was taken, the cells were collected, centrifuged, resuspend, counted, and then inoculated into 96-well Microplate (Corning #3917), with 4000 cells inoculated in each well. The plates were placed in an incubator at 37° C. and 5% CO2 for 24 hrs culture, and the compounds of the invention were added for conducting.
(§16) An appropriate amount of the compound of the invention was taken for cell treatment, and the final concentration of the compound from high to low was 1000 nM, 333.3 nM, 111.1 nM, 37.04 nM, 12.35 nM, 4.115 nM, 1.372 nm, 0.4572 nM, 0.1524 nM, 0 nM, respectively. The orifice plate was cultured in an incubator at 37° C. and 5% CO2. Only adding medium without adding cell hole was set as blank group. Compound concentration of 0 nM group was zero control group.
After cultured for 120 hrs, MV-4-11 cells were added with 50 μL CellTiter-Glo® Luminescent cell viability assay solution in each well, gently shaken for 2 mins, and incubated at room temperature for 10 mins. The detection values of each well were read on the multi-functional microplate reader.
(§17) The inhibition rate is calculated according to the luminous value reading,
(§18) Inhibition rate %=(1−(administration group value−blank group value)/(control group value−blank group value)*100
(§19) The log (inhibitor) vs. response variable slope of GraphPad Prism was used to fit the dose-response curve and calculate the IC50 of compounds inhibiting cell proliferation.
In general terms: Cellular ATP, detected with luciferase, serves as a proxy for viable cell number.

Data set [6] has as its system lung cancer NCI-H358 cell. Kind of data set: Cell proliferation assay (CellTiter-Glo), NCI-H358. It is filed as cell-based. As to conditions: Homo sapiens; NCI-H358, 96 hrs, CTG; class symbols; read-out: Compound on NCI-H358 cell IC50. As for the experimental part:
as §15
A bottle of NCI-H358 cells in logarithmic growth phase was taken, the cells were digested and resuspend, counted, and then the cell density was adjusted. After that, the cells were inoculated into a 96-well Ultra-Low Attachment Microplate (Corning #3474), 2000 cells were inoculated in each well, and the well plate was placed in an incubator at 37° C. and 5% CO2, and the compounds of the invention were added for conducting.
as §16
NCI-H358 cells were cultured for 96 hrs, then 50 μL CellTiter-Glo® Luminescent cell viability assay solution was added to each well, and the cells were gently shaken for 2 mins, and incubated at room temperature for 10 mins. The cell reaction system was transferred to 96-well Microplate (Corning #3917). The detection values of each well were read on the multi-functional microplate reader.
as §17, §18, §19

We go through 7 molecules from US20230192705A1, “SHP2 INHIBITORS, COMPOSITIONS AND USES THEREOF” (Betta Pharmaceuticals Co., Ltd, priority 2020, published 2023).

Bounds are passed on as bounds.

By IC50 is commonly meant the concentration that inhibits the measured activity by half. With `CC(C)(c1ccccc1)c1n[nH]c2nc(N3CCC4(CC3)Cc3ccccc3[C@H]4N)[nH]c(=O)c12` [Example 216, (S)-6-(1-amino-1,3-dihydrospiro[indene-2,4′-piperidin]-1′-yl)-3-(2-phenylpropan-2-yl)-1,5-dihydro-4H-pyrazolo[3,4-d]pyrimidin-4-one], the “CLint Human” value in data set [1] worked out at 50.0 μL/min/mg proteins. The “CLint Rat” value in data set [2] is recorded as 32.5 μL/min/mg proteins. The IC50 in data set [3] (numeric values) was 0.0011 µM.

As to `Cn1c(N2CCC3(CC2)Cc2ccccc2[C@H]3N)nc2[nH]nc(Sc3cccc(Cl)c3Cl)c2c1=O` [Comparative compound 1, reference compound], the “CLint Human” value in data set [1] amounted to 171.8 μL/min/mg proteins. Also, in data set [2], the “CLint Rat” value amounted to 89.9 μL/min/mg proteins. Besides, in data set [4], the IC50 was found to be 0.09 µM.

In the case of `CCOC(=O)Nc1ccc(C2(c3n[nH]c4nc(N5CCC6(CC5)Cc5ccccc5[C@H]6N)[nH]c(=O)c34)CC2)cc1` [Example 231, ethyl (S)-(4-(1-(6-(1-amino-1,3-dihydrospiro[indene-2,4′-piperidin]-1′-yl)-4-oxo-4,5-dihydro-1H-pyrazolo[3,4-d]pyrimidin-3-yl)cyclopropyl)phenyl)carbamate], the IC50 in data set [5] is at most 0.02 µM; in data set [6], 0.02 to 0.06 µM; in data set [4], 7.5 µM.

On to `N[C@@H]1c2ccccc2CC12CCN(c1nc3[nH]nc(C4(c5ccc(OC(F)(F)F)cc5)CC4)c3c(=O)[nH]1)CC2` [Example 233, (S)-6-(1-amino-1,3-dihydrospiro[indene-2,4′-piperidin]-1′-yl)-3-(1-(4-(trifluoromethoxy)phenyl)cyclo-propyl)-1,5-dihydro-4H-pyrazolo[3,4-d]pyrimidin-4-one], for which the “CLint Human” value in data set [1] is given as 0.2 μL/min/mg proteins. Also, in data set [2], the “CLint Rat” value is 3.4 μL/min/mg proteins. The molecule further came in with an IC50 in data set [3] (class symbols) of at most 0.02 µM.

As for `N[C@@H]1c2ccccc2CC12CCN(c1nc3[nH]nc(C4(c5cccc(-n6cccn6)c5)CC4)c3c(=O)[nH]1)CC2` [Example 38, (S)-3-(1-(3-(1H-pyrazol-1-yl)phenyl)cyclopropyl)-6-(1-amino-1,3-dihydrospiro[indene-2,4′-piperidin]-1′-yl)-1,5-dihydro-4H-pyrazolo[3,4-d]pyrimidin-4-one], the IC50 in data set [3] (numeric values) stood at 0.0031 µM; in data set [4] it was 14.2 µM.

`COc1ccc(C2(c3n[nH]c4nc(N5CCC6(CC5)Cc5ccccc5[C@H]6N)[nH]c(=O)c34)CC2)cc1OC` [Example 221, (S)-6-(1-amino-1,3-dihydrospiro[indene-2,4′-piperidin]-1′-yl)-3-(1-(3,4-dimethoxyphenyl)cyclopropyl)-1,5-dihydro-4H-pyrazolo[3,4-d]pyrimidin-4-one]: the IC50 is at most 0.02 µM in data set [3] (class symbols) and over 30 µM in data set [4].

`COc1ccc(C2(c3n[nH]c4nc(N5CCC6(CC5)Cc5ccccc5[C@H]6N)[nH]c(=O)c34)CC2)cc1` [Example 19, (S)-6-(1-amino-1,3-dihydrospiro[indene-2,4′-piperidin]-1′-yl)-3-(1-(4-methoxyphenyl)cyclopropyl)-1,5-dihydro-4H-pyrazolo[3,4-d]pyrimidin-4-one]: the figures for the IC50 in data set [5], in data set [6] and in data set [4] were at most 0.02 µM, 0.02 to 0.06 µM and 11.7 µM, respectively.
